# Assay results as given in patent US20240018145A1, “[…]-DEPENDENT EN[…] TREATING OR […]” (priority 2020, published 2024).
# pEC50: −log10 of the molar value.
# Tested on: FLU A (PR/8/34)
# Test: Flu A Neuraminidase Antiviral Assay
# Assay type: cell-based
# Details: not given
row,Structure (SMILES),pEC50
1,"CCN1C(=O)c2c(O)c(=O)cc(COC)n2N2C(c3ccccc3)C(CC(F)(F)F)CCC12 (stereo not shown) [Compound 131B, 5-ethyl-7-hydroxy-10-(methoxymethyl)-1-phenyl-2-(2,2,2-trifluoroethyl)-1,2,3,4,4a,5-hexahydrodipyrido[1,2-b:2′,1′-f][1,2,4]triazine-6,8-dione]",< 6.09
2,"CCN1C(=O)c2c(O)c(=O)cc(COC)n2N2C(c3ccccc3)C(CC(F)(F)F)CCC12 (stereo not shown) [Compound 131C, 5-ethyl-7-hydroxy-10-(methoxymethyl)-1-phenyl-2-(2,2,2-trifluoroethyl)-1,2,3,4,4a,5-hexahydrodipyrido[1,2-b:2′,1′-f][1,2,4]triazine-6,8-dione]",< 6.09
3,"CCN1C(=O)c2c(O)c(=O)cc(COC)n2N2C(c3ccccc3)C(CC(F)(F)F)CCC12 (stereo not shown) [Compound 131D, 5-ethyl-7-hydroxy-10-(methoxymethyl)-1-phenyl-2-(2,2,2-trifluoroethyl)-1,2,3,4,4a,5-hexahydrodipyrido[1,2-b:2′,1′-f][1,2,4]triazine-6,8-dione]",< 6.09
4,"CCN1C(=O)c2c(O)c(=O)cc(COC)n2N2C(c3ccccc3)C(CC(F)(F)F)CCC12 (stereo not shown) [Compound 131E, 5-ethyl-7-hydroxy-10-(methoxymethyl)-1-phenyl-2-(2,2,2-trifluoroethyl)-1,2,3,4,4a,5-hexahydrodipyrido[1,2-b:2′,1′-f][1,2,4]triazine-6,8-dione]",8.17
5,"CCN1C(=O)c2c(O)c(=O)cc(COC)n2N2C(c3ccccc3)C(CC(F)(F)F)CCC12 (stereo not shown) [Compound 131F, 5-ethyl-7-hydroxy-10-(methoxymethyl)-1-phenyl-2-(2,2,2-trifluoroethyl)-1,2,3,4,4a,5-hexahydrodipyrido[1,2-b:2′,1′-f][1,2,4]triazine-6,8-dione]",7.90
6,"CN1C(=O)c2c(O)c(=O)ccn2N2C(c3ccccc3)C(O)CCC12 (stereo not shown) [Compound 135B, 2,7-dihydroxy-5-methyl-1-phenyl-1,2,3,4,4a,5-hexahydrodipyrido[1,2-b:2′,1′-f][1,2,4]triazine-6,8-dione]",< 5.09
7,"CN1C(=O)c2c(O)c(=O)ccn2N2C(c3ccccc3)C(O)CCC12 (stereo not shown) [Compound 136A, 2,7-dihydroxy-5-methyl-1-phenyl-1,2,3,4,4a,5-hexahydrodipyrido[1,2-b:2′,1′-f][1,2,4]triazine-6,8-dione]",5.72
8,"CN1C(=O)c2c(O)c(=O)ccn2N2C(c3ccccc3)C(O)CCC12 (stereo not shown) [Compound 136B, 2,7-dihydroxy-5-methyl-1-phenyl-1,2,3,4,4a,5-hexahydrodipyrido[1,2-b:2′,1′-f][1,2,4]triazine-6,8-dione]",< 5.09
9,"CN1C(=O)c2c(O)c(=O)ccn2N2C1CCC(O)C2(C)c1ccccc1 (stereo not shown) [Compound 137A, 2,7-dihydroxy-1,5-dimethyl-1-phenyl-1,2,3,4,4a,5-hexahydrodipyrido[1,2-b:2′,1′-f][1,2,4]triazine-6,8-dione]",6.10
10,"CN1C(=O)c2c(O)c(=O)ccn2N2C1CCC(O)C2(C)c1ccccc1 (stereo not shown) [Compound 137B, 2,7-dihydroxy-1,5-dimethyl-1-phenyl-1,2,3,4,4a,5-hexahydrodipyrido[1,2-b:2′,1′-f][1,2,4]triazine-6,8-dione]",< 5.09
11,"CN1C(=O)c2c(O)c(=O)ccn2N2C1CCC(O)C2(C)c1ccccc1 (stereo not shown) [Compound 137C, 2,7-dihydroxy-1,5-dimethyl-1-phenyl-1,2,3,4,4a,5-hexahydrodipyrido[1,2-b:2′,1′-f][1,2,4]triazine-6,8-dione]",< 5.09
12,"CN1C(=O)c2c(O)c(=O)ccn2N2C1CCC(O)C2(C)c1ccccc1 (stereo not shown) [Compound 137D, 2,7-dihydroxy-1,5-dimethyl-1-phenyl-1,2,3,4,4a,5-hexahydrodipyrido[1,2-b:2′,1′-f][1,2,4]triazine-6,8-dione]",7.31
13,"CN1C(=O)c2c(O)c(=O)ccn2N2C1CCC(=O)C2(C)c1ccccc1 (stereo not shown) [Compound 138A, 7-hydroxy-1,5-dimethyl-1-phenyl-3,4,4a,5-tetrahydrodipyrido[1,2-b:2′,1′-f][1,2,4]triazine-2,6,8(1H)-trione]",7.71
14,"CN1C(=O)c2c(O)c(=O)ccn2N2C1CCC(=O)C2(C)c1ccccc1 (stereo not shown) [Compound 138B, 7-hydroxy-1,5-dimethyl-1-phenyl-3,4,4a,5-tetrahydrodipyrido[1,2-b:2′,1′-f][1,2,4]triazine-2,6,8(1H)-trione]",5.77
15,"COc1c2n(ccc1=O)N1C(c3ccccc3)C(SC(C)C)CCC1N(C)C2=O (stereo not shown) [Compound 146A, 2-(isopropylthio)-7-methoxy-5-methyl-1-phenyl-1,2,3,4,4a,5-hexahydrodipyrido[1,2-b:2′,1′-f][1,2,4]triazine-6,8-dione]",7.73
16,"COc1c2n(ccc1=O)N1C(c3ccccc3)C(SC(C)C)CCC1N(C)C2=O (stereo not shown) [Compound 146B, 2-(isopropylthio)-7-methoxy-5-methyl-1-phenyl-1,2,3,4,4a,5-hexahydrodipyrido[1,2-b:2′,1′-f][1,2,4]triazine-6,8-dione]",6.62
17,"CCOC1CCC2N(C)C(=O)c3c(O)c(=O)ccn3N2C1c1ccccc1 (stereo not shown) [Compound 152A, 2-ethoxy-7-hydroxy-5-methyl-1-phenyl-1,2,3,4,4a,5-hexahydrodipyrido[1,2-b:2′,1′-f][1,2,4]triazine-6,8-dione]",5.37
18,"CCOC1CCC2N(C)C(=O)c3c(O)c(=O)ccn3N2C1c1ccccc1 (stereo not shown) [Compound 152B, 2-ethoxy-7-hydroxy-5-methyl-1-phenyl-1,2,3,4,4a,5-hexahydrodipyrido[1,2-b:2′,1′-f][1,2,4]triazine-6,8-dione]",7.44

# Same assay, conditions: MDCK, 48 h
row,Structure (SMILES),pEC50
1,"COCCC1CCC2N(C)C(=O)c3c(O)c(=O)ccn3N2C1c1ccccc1Cl (stereo not shown) [Compound 67, 1-(2-chlorophenyl)-7-hydroxy-2-(2-methoxyethyl)-5-methyl-1,2,3,4,4a,5-hexahydrodipyrido[1,2-b:2′,1′-f][1,2,4]triazine-6,8-dione]",7.79
2,"CC(C)CC1CC(c2ccccc2)N2C(C1)N(C)C(=O)c1c(O)c(=O)ccn12 (stereo not shown) [Compound 130B, 7-hydroxy-3-isobutyl-5-methyl-1-phenyl-1,2,3,4,4a,5-hexahydrodipyrido[1,2-b:2′,1′-f][1,2,4]triazine-6,8-dione]",5.85
3,"CN1C(=O)c2c(O)c(=O)c(C#N)cn2N2C(c3ccccc3)C(CC(F)(F)F)CCC12 (stereo not shown) [Compound 133, 7-hydroxy-5-methyl-6,8-dioxo-1-phenyl-2-(2,2,2-trifluoroethyl)-1,2,3,4,4a,5,6,8-octahydrodipyrido[1,2-b:2′,1′-f][1,2,4]triazine-9-carbonitrile]",< 6.09
4,"CN1C(=O)c2c(O)c(=O)c(-c3nnn[nH]3)cn2N2C(c3ccccc3)C(CC(F)(F)F)CCC12 (stereo not shown) [Compound 134, 7-hydroxy-5-methyl-1-phenyl-9-(1H-tetrazol-5-yl)-2-(2,2,2-trifluoroethyl)-1,2,3,4,4a,5-hexahydrodipyrido[1,2-b:2′,1′-f][1,2,4]triazine-6,8-dione]",6.34
5,"CN1C(=O)c2c(O)c(=O)ccn2N2[C@H](c3ccccc3)[C@@H](N=[N+]=[N-])CC[C@@H]12 [Compound 139, (1R,2S,4aS)-2-azido-7-hydroxy-5-methyl-1-phenyl-1,2,3,4,4a,5-hexahydrodipyrido[1,2-b:2′,1′-f][1,2,4]triazine-6,8-dione]",7.63
6,CN1C(=O)c2c(O)c(=O)ccn2N2[C@H](c3ccccc3)[C@@H](NC(=O)C(F)(F)F)CC[C@@H]12 [Compound 140],5.62
7,"CN1C(=O)c2c(O)c(=O)ccn2N2[C@H](c3ccccc3)[C@@H](n3cc(CO)nn3)CC[C@@H]12 [Compound 141, (1R,2S,4aS)-7-hydroxy-2-(4-(hydroxymethyl)-1H-1,2,3-triazol-1-yl)-5-methyl-1-phenyl-1,2,3,4,4a,5-hexahydrodipyrido[1,2-b:2′,1′-f][1,2,4]triazine-6,8-dione]",< 5.09
8,CC(C)S[C@H]1CC[C@H]2N(C)C(=O)c3c(O)c(=O)ccn3N2[C@@H]1c1ccccc1 [Compound 143B],7.82
9,"CC(=O)N[C@H]1CC[C@@H](c2ccccc2)N2[C@@H]1N(C)C(=O)c1c(O)c(=O)ccn12 [Compound 144, N-((1S,4S,4aS)-7-hydroxy-5-methyl-6,8-dioxo-1-phenyl-1,2,3,4,4a,5,6,8-octahydrodipyrido[1,2-b:2′,1′-f][1,2,4]triazin-4-yl)acetamide]",< 6.09
10,"CC(=O)N(C)[C@H]1CC[C@@H](c2ccccc2)N2[C@@H]1N(C)C(=O)c1c(O)c(=O)ccn12 [Compound 145, N-((1S,4S,4aS)-7-hydroxy-5-methyl-6,8-dioxo-1-phenyl-1,2,3,4,4a,5,6,8-octahydrodipyrido[1,2-b:2′,1′-f][1,2,4]triazin-4-yl)-N-methylacetamide]",< 6.09
11,"CS[C@H]1CC[C@@H](c2ccccc2)N2[C@@H]1N(C)C(=O)c1c(O)c(=O)ccn12 [Compound 147, (1S,4S,4aS)-7-hydroxy-5-methyl-4-(methylthio)-1-phenyl-1,2,3,4,4a,5-hexahydrodipyrido[1,2-b:2′,1′-f][1,2,4]triazine-6,8-dione]",7.77
12,"CN1C(=O)c2c(O)c(=O)ccn2N2C1CCC1OCc3ccccc3C12C (stereo not shown) [Compound 148, 7-hydroxy-5,12a-dimethyl-2a,3,4,4a,5,12a-hexahydro-1H-isochromeno[3′,4′:5,6]pyrido[1,2-b]pyrido[2,1-f][1,2,4]triazine-6,8-dione]",7.42
13,"CN1C(=O)c2c(O)c(=O)ccn2N2C1/C(=C/c1ccccc1)C[C@@H](O)[C@@]2(C)c1ccccc1 (stereo partly drawn) [Compound 149, (1R,2R)-4-((E)-benzylidene)-2,7-dihydroxy-1,5-dimethyl-1-phenyl-1,2,3,4,4a,5-hexahydrodipyrido[1,2-b:2′,1′-f][1,2,4]triazine-6,8-dione]",< 6.09
14,"CN1C(=O)c2c(O)c(=O)ccn2N2C1CC[C@H]1CCc3ccccc3[C@H]12 (stereo partly drawn) [Compound 150, Cis-16-hydroxy-2-methyl-2,2a,3,4,4a,5,6,10b-octahydrobenzo[h]pyrido[1′,2′:1,6][1,2,4]triazino[2,3-a]quinoline-1,15-dione]",7.16
15,CN1C(=O)c2c(O)c(=O)ccn2N2C1CC[C@H](OCC=C(F)F)[C@@]2(C)c1ccccc1 (stereo partly shown) [Compound 151],< 6.09
16,"CN1C(=O)c2c(O)c(=O)ccn2N2[C@H](c3ccccc3)[C@@H](OCCCCC#N)CC[C@@H]12 [Compound 154, 5-(((1R,2S,4aS)-7-hydroxy-5-methyl-6,8-dioxo-1-phenyl-1,2,3,4,4a,5,6,8-octahydrodipyrido[1,2-b:2′,1′-f][1,2,4]triazin-2-yl)oxy)pentanenitrile]",< 6.09
